Laboratory results: article PMC11456916, “A screen for cell envelope stress uncovers an inhibitor of prolipoprotein diacylglyceryl transferase, Lgt, in Escherichiacoli” (iScience, 2024)

Tests used:
[1] = tested on: E. coli ΔtolC-pore harboring CRISPRi plasmids targeting lgt; assay: CRISPRi lgt knockdown MIC (low-copy enhancement); type: cell-based; settings: two gRNAs targeting lgt, 100 ng/mL aTc
Source text: We next turned to genetic approaches to confirm the mechanism of action of MAC-0452936. […] To that end, we screened the E. coli CRISPRi collection in the ΔtolC-pore genetic background with a sub-inhibitory concentration of MAC-0452936 and measured the fitness of all 356 CRISPRi mutants (Figure 4C and Data S4). […] Depletion of Lgt by CRISPRi provided supporting evidence that MAC-0452936 targeted Lgt in E. coli; however, we sought to confirm this observation using a parallel genetic approach. We hypothesized that MAC-0452936 potency would also be affected by high-copy expression of lgt. To that end, we introduced either an arabinose inducible copy of lgt supplied on the pCHAP9231 plasmid[48] or the pBAD19s plasmid as a control into E. coli ΔtolC-pore and tested the potency of MAC-0452936 (Figure 4E). Induction of lgt expression with arabinose suppressed the activity of MAC-0452936 by about 8-fold. […] To test this hypothesis, we constructed E. coli ΔlgtΔtolC-pore with pCHAP9231[48] so that lgt expression was driven solely by arabinose from the plasmid. […] To test this observation with MAC-0452936, we introduced an lpp deletion into our screening strain E. coli ΔtolC-pore and assessed the activity of our Lgt inhibitor in this mutant background. […]

[2] = tested on: 356 CRISPRi constructs in E. coli ΔtolC-pore; assay: CRISPRi collection fitness screen with sub-inhibitory compound; type: cell-based; settings: for Growth, mean colony biomass (n=4): +250 ng/ml Vancomycin
Source text: To that end, we screened the E. coli CRISPRi collection in the ΔtolC-pore genetic background with a sub-inhibitory concentration of MAC-0452936 and measured the fitness of all 356 CRISPRi mutants (Figure 4C and Data S4). […] To that end, we introduced either an arabinose inducible copy of lgt supplied on the pCHAP9231 plasmid[48] or the pBAD19s plasmid as a control into E. coli ΔtolC-pore and tested the potency of MAC-0452936 (Figure 4E). […] To test this hypothesis, we constructed E. coli ΔlgtΔtolC-pore with pCHAP9231[48] so that lgt expression was driven solely by arabinose from the plasmid.
For screens of the CRISPRi collection with MAC-0452936, the mobile CRISPRi collection was first conjugated into E. coli ΔtolC-pore as previously described.[30] The CRISPRi collection was then arrayed on solid agar at 1536 density using the Singer-ROTOR, such that each CRISPRi strain is arrayed in technical quadruplicate. […] The screens were conducted without CRISPRi induction, using just the 5–10% basal knockdown from the pFD152 CRISPRi plasmid. Following overnight growth, plates were imaged using high-resolution scanners (Epson Perfection v750), and colony biomass for each mutant was determined.

CN[C@H](CC(C)C)C(=O)N[C@H]1C(=O)N[C@@H](CC(N)=O)C(=O)N[C@H]2C(=O)N[C@H]3C(=O)N[C@H](C(=O)N[C@H](C(=O)O)c4cc(O)cc(O)c4-c4cc3ccc4O)[C@H](O)c3ccc(c(Cl)c3)Oc3cc2cc(c3O[C@@H]2O[C@H](CO)[C@@H](O)[C@H](O)[C@H]2O[C@H]2C[C@](C)(N)[C@H](O)[C@H](C)O2)Oc2ccc(cc2Cl)[C@H]1O [Vancomycin]
sensitization upon depletion of Lgt with CRISPRi constructs [1]: not to either of the negative control antibiotics | Growth, mean colony biomass (n=4) ([2]; gRNA asnS): 0.957 | Growth represented as mean colony biomass ([2]; gRNA cdsA, 1μg/ml MAC0452936, 6ng/ml LolCDE-in-1, 250 ng/ml Vancomycin, 7 ng/ml CHIR090, n=4): 1.2659 | Growth, mean colony biomass (n=4) ([2]; gRNA csrA): 0.9477 | Growth, mean colony biomass (n=4) ([2]; gRNA dnaC): 1.003 | Growth, mean colony biomass (n=4) ([2]; gRNA dut): 1.0326 | Growth, mean colony biomass (n=4) ([2]; gRNA folA): 1.027 | Growth, mean colony biomass (n=4) ([2]; gRNA folC): 1.033 | Growth, mean colony biomass (n=4) ([2]; gRNA ftsA): 0.9398 | Growth, mean colony biomass (n=4) ([2]; gRNA glmS): 1.002 | Growth, mean colony biomass (n=4) ([2]; gRNA hemD): 1.042 | Growth, mean colony biomass (n=4) ([2]; gRNA lexA): 1.232 | Growth, mean colony biomass (n=4) ([2]; gRNA mnmA): 1.044 | Growth, mean colony biomass (n=4) ([2]; gRNA msbA): 1.015 | Growth, mean colony biomass (n=4) ([2]; gRNA mukF): 1.002 | Growth, mean colony biomass (n=4) ([2]; gRNA nadK): 0.9893 | Growth, mean colony biomass (n=4) ([2]; gRNA prmC): 1.009 | Growth, mean colony biomass (n=4) ([2]; gRNA pssA): 0.9581 | Growth, mean colony biomass (n=4) ([2]; gRNA ptsI): 1.038 | Growth, mean colony biomass (n=4) ([2]; gRNA ribD): 1.045 | Growth, mean colony biomass (n=4) ([2]; gRNA rne): 1.0315 | Growth, mean colony biomass (n=4) ([2]; gRNA rplA): 0.9936 | Growth, mean colony biomass (n=4) ([2]; gRNA rplX): 1.03 | Growth, mean colony biomass (n=4) ([2]; gRNA rpmC): 1.003 | Growth, mean colony biomass (n=4) ([2]; gRNA rpoE): 1.036 | Growth, mean colony biomass (n=4) ([2]; gRNA rpsG): 1.014 | Growth, mean colony biomass (n=4) ([2]; gRNA rpsK): 0.9986 | Growth, mean colony biomass (n=4) ([2]; gRNA rpsR): 0.9771 | Growth, mean colony biomass (n=4) ([2]; gRNA rpsT): 1.039 | Growth, mean colony biomass (n=4) ([2]; gRNA suhB): 0.9724 | Growth, mean colony biomass (n=4) ([2]; gRNA tsaE): 0.9903 | Growth, mean colony biomass (n=4) ([2]; gRNA ygeN): 0.9481 | Growth, mean colony biomass (n=4) ([2]; gRNA yqeL): 1.455 | Growth, mean colony biomass (n=4) ([2]; gRNA zipA): 1.731 | growth defect of the lgt CRISPRi mutant in the presence of compound ([2]; sub-inhibitory (¼ MIC) concentration, LB agar, basal knockdown): did not demonstrate a growth defect
